Key:
telomerase = target: T1, telomerase (Homo sapiens, UniProt O14746); test: Inhibition of telomerase activity (IC50); type: biochemical
T1 construct: placing cells, tissues, or preferably a cellular extract or other preparation containing telomerase in contact with; endogenous in cells
Description: One method used to identify compounds of the invention that inhibit telomerase activity involves placing cells, tissues, or preferably a cellular extract or other preparation containing telomerase in contact with several known concentrations of a test compound in a buffer compatible with telomerase activity. […] Other methods for determining the inhibitory concentration of a compound of the invention against telomerase can be employed as will be apparent to those of skill in the art based on the disclosure herein.
With the above-described methods, IC50 values for several of the compounds of the present invention were determined. The values reported in Table 3 below are only approximate values; more exact IC50 values can be obtained by repetitive testing.

[1] = tested on: telomerase-positive cells; test: Telomere length in telomerase-positive cells treated with Compound XIV (one uncontrolled experiment); type: cell-based; settings: dosing period of about 48 hours
Experimental: Colonies of the tumor cell lines, such as the ovarian tumor cell lines OVCAR-5 and SK-OV-3, and normal human cells used as a control (e.g., normal human BJ cells) are prepared using standard methods and materials. In one test, the colonies are prepared by seeding 15-centimeter dishes with about 10^6 cells in each dish. The dishes are incubated to allow the cell colonies to grow to about 80% confluence, at which time each of the colonies are divided into two groups. One group is exposed to a subacute dose of a compound of the invention at a predetermined concentration (e.g., between about 5 μM and about 20 μM) for a period of about 4-8 hours after plating following the split; the other group is exposed to a control (e.g., DMSO).
Each group is then allowed to continue to divide, and the groups are split evenly again (near confluence). The same number of cells are seeded for continued growth. The compound or control is added every fourth day to the samples at the same concentration delivered initially. Remaining cells are analyzed for telomere length. As the untested cell cultures near confluence, the samples are split again as just described. […]
Telomere length is determined by digesting the DNA of the cells using restriction enzymes specific for sequences other than the repetitive T2 AG3 sequence of human telomeres. […]

[2] = Half-life of Compound XIV; type: in vitro ADME; settings: additional data suggest; on the order of about
[3] = Table 3, only approximate values
[4] = approximate IC50 values, summary of the table

T1 sequence (O14746 whole entry): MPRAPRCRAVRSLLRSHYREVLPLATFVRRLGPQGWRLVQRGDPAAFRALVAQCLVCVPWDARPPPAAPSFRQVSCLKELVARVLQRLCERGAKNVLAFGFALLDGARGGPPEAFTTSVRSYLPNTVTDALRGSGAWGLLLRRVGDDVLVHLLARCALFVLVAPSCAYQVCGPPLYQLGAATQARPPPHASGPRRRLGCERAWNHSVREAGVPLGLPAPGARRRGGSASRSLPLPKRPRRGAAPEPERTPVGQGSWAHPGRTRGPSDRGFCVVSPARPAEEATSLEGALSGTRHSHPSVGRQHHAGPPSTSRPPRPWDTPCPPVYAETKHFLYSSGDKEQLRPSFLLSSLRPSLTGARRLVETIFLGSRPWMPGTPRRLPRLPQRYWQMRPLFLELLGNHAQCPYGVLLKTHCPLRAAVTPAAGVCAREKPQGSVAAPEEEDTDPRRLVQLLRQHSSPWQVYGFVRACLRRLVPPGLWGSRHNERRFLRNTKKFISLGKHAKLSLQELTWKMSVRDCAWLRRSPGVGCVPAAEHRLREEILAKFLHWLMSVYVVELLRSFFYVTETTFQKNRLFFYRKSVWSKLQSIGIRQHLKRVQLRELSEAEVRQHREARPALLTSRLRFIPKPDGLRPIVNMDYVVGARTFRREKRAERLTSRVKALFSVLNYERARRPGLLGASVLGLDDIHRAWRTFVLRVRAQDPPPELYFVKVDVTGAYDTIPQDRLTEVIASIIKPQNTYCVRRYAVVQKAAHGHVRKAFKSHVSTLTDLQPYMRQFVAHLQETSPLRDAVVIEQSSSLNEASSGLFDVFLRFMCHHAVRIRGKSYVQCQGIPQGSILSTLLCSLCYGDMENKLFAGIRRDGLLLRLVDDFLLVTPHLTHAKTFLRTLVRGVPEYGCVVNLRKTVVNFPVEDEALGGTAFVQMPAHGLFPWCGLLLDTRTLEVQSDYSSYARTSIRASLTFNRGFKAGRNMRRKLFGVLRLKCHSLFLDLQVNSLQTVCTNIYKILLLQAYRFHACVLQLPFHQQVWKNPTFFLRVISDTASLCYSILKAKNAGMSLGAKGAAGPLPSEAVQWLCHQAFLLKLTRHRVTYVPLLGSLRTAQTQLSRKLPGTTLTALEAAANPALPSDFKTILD
T1 sequence (O60832 whole entry partner): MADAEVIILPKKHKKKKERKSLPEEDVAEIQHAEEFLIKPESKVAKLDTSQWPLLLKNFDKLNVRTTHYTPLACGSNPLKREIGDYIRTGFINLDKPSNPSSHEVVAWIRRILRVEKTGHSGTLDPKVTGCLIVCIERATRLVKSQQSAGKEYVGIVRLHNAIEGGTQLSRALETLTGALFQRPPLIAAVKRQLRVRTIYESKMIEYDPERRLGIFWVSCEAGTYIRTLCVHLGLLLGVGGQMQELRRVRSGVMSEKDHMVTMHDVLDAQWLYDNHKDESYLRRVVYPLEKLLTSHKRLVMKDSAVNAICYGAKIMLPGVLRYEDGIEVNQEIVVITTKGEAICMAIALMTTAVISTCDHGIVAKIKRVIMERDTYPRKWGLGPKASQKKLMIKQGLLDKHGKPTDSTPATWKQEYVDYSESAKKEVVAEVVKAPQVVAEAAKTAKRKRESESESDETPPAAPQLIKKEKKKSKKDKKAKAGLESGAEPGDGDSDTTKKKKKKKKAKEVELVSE
T1 sequence (Q9NPE3 whole entry partner): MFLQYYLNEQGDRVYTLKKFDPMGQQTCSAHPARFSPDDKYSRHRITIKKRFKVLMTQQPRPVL
T1 sequence (Q9NX24 whole entry partner): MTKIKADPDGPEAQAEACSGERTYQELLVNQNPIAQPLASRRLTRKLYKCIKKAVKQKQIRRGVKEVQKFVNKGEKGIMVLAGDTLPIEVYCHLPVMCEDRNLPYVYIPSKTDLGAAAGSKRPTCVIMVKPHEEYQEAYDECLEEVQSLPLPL
T1 sequence (Q9NY12 whole entry partner): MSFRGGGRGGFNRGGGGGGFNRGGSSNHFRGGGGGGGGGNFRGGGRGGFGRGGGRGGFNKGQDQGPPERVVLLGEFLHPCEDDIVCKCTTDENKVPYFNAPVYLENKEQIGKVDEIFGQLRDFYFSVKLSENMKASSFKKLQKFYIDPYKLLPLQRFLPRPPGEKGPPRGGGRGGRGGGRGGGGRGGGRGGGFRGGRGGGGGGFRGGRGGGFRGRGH

## COc1ccc(N=Cc2ccc(C#N)c(SCc3ccc(Cl)s3)n2)nc1 [Compound LIII]
telomerase; [3]
  IC50: 5 µM
telomerase; [4]
  IC50: < 5 µM

## N#Cc1ccc(C=Nc2ccc(Br)cn2)nc1SCc1ccc(Cl)s1 [Compound LII]
telomerase; [3]
  IC50: < 3.2 µM
telomerase; [4]
  IC50: < 5 µM

## Cc1ccc(NN=Cc2ccc(C#N)c(SCc3ccc(Cl)c(Cl)c3)n2)cc1 [Compound LIV]
telomerase; [3]
  IC50: 17 µM

## N#Cc1ccc(C=NNC(=S)Nc2ccc(F)cc2)nc1SCc1ccc(Cl)c(Cl)c1 [Compound LVII]
telomerase; [3]
  IC50: 18 µM

## Cc1ccc(NC(=S)NN=Cc2ccc(C#N)c(SCc3ccc(Cl)c(Cl)c3)n2)cc1 [Compound LVI]
telomerase; [3]
  IC50: 18 µM

## N#Cc1ccc(C=NNc2ccc(Cl)cc2)nc1SCc1ccc(Cl)c(Cl)c1 [Compound LV]
telomerase; [3]
  IC50: 19.2 µM

## Cc1cccnc1N=Cc1ccc(C#N)c(SCc2ccc(Cl)c(Cl)c2)n1 [Compound XIV]
telomerase; [3]
  IC50: < 3.2 µM
telomerase; [4]
  IC50: < 5 µM
[1]
  shorting of telomere length: No significant shorting of telomere length was observed
[2]
  half-life: ~720 min

## Cc1cccnc1N=Cc1ccc(C#N)c(SCc2ccccc2C(F)(F)F)n1 [Compound XIX]
telomerase; [3]
  IC50: 3 µM

## Cc1cccnc1N=Cc1ccc(C#N)c(SCc2ccc3c(c2)C(C)(C)CCC3(C)C)n1 [Compound XLIII]
telomerase; [3]
  IC50: < 3.2 µM
telomerase; [4]
  IC50: < 5 µM

## Cc1cccnc1N=Cc1ccc(C#N)c(SCc2csc3ccc(Cl)cc23)n1 [Compound XLVII]
telomerase; [3]
  IC50: < 3.2 µM
telomerase; [4]
  IC50: < 5 µM

## Cc1cccnc1N=Cc1ccc(C#N)c(SCc2ccccc2-c2ccccc2)n1 [Compound XVIII]
telomerase; [3]
  IC50: 2 µM

## Cc1cccnc1N=Cc1ccc(C#N)c(SCc2cc(C(F)(F)F)cc(C(F)(F)F)c2)n1 [Compound XVII]
telomerase; [3]
  IC50: 2 µM

## Cc1cccnc1N=Cc1ccc(C#N)c(SCc2c(Cl)cccc2Cl)n1 [Compound XVI]
telomerase; [3]
  IC50: 1 µM

## Cc1ccnc(N=Cc2ccc(C#N)c(SCc3ccc(Cl)c(Cl)c3)n2)c1 [Compound XV]
telomerase; [3]
  IC50: 8 µM

## Cc1cccnc1N=Cc1ccc(C#N)c(SCc2ccccc2Br)n1 [Compound XXIII]
telomerase; [3]
  IC50: 2 µM

## Cc1cccnc1N=Cc1ccc(C#N)c(SCc2ccc(-c3ccccc3)cc2)n1 [Compound XXII]
telomerase; [3]
  IC50: 2 µM

## Cc1ccccc1CSc1nc(C=Nc2ncccc2C)ccc1C#N [Compound XXIV]
telomerase; [3]
  IC50: 3 µM

## Cc1cc(C)cc(CSc2nc(C=Nc3ncccc3C)ccc2C#N)c1 [Compound XXIX]
telomerase; [3]
  IC50: 2 µM

## Cc1cccnc1N=Cc1ccc(C#N)c(SCc2ccc(C(C)C)cc2)n1 [Compound XXI]
telomerase; [3]
  IC50: 2 µM

## Cc1cccnc1N=Cc1ccc(C#N)c(SCc2ccc(C(F)(F)F)cc2C(F)(F)F)n1 [Compound XXVII]
telomerase; [3]
  IC50: 5 µM

## Cc1ccc(C)c(CSc2nc(C=Nc3ncccc3C)ccc2C#N)c1 [Compound XXVI]
telomerase; [3]
  IC50: 0.9 µM

## Cc1cccnc1N=Cc1ccc(C#N)c(SCc2cc(Cl)cc3c2OCOC3)n1 [Compound XXV]
telomerase; [3]
  IC50: 4 µM

## Cc1cccnc1N=Cc1ccc(C#N)c(SCc2cc(Cl)cc(Cl)c2)n1 [Compound XXXII]
telomerase; [3]
  IC50: < 3.2 µM

## Cc1ccc(CSc2nc(C=Nc3ncccc3C)ccc2C#N)c(C)c1 [Compound XXXI]
telomerase; [3]
  IC50: < 3.2 µM

## Cc1cccnc1N=Cc1ccc(C#N)c(SCc2cc(Cl)cc(Cl)c2)n1 [Compound XXXVII]
telomerase; [4]
  IC50: < 5 µM

## Cc1cccnc1N=Cc1ccc(C#N)c(SCc2ccc(C(C)(C)C)cc2)n1 [Compound XXX]
telomerase; [3]
  IC50: 2 µM

## Cc1cccnc1N=Cc1ccc(C#N)c(SCc2ccc(C=Cc3ccccc3)cc2)n1 [Compound XX]
telomerase; [3]
  IC50: 8 µM

## CCN1C(=O)c2ccc(N=Cc3ccc(C#N)c(SCc4ccc(Cl)c(Cl)c4)n3)cc2C1=O [Compound X]
telomerase; [3]
  IC50: 9 µM

## N#Cc1ccc(C=Nc2ccc(Cl)cc2)nc1SCc1ccc(Cl)c(Cl)c1 [III]
telomerase; [3]
  IC50: 6.5 µM

## COc1ccc(N=Cc2ccc(C#N)c(SCc3ccc(Cl)c(Cl)c3)n2)cc1 [IV]
telomerase; [3]
  IC50: 4.9 µM
telomerase; [4]
  IC50: < 5 µM

## N#Cc1ccc(C=Nc2ccc3c(c2)C(=O)N(Cc2ccccc2)C3=O)nc1SCc1ccc(Cl)c(Cl)c1 [IX]
telomerase; [3]
  IC50: 8 µM

## Cc1cccnc1N=Cc1ccc(C#N)c(SCC#CCSc2nc(C=Nc3ncccc3C)ccc2C#N)n1 [LXI]
telomerase; [3]
  IC50: < 3.2 µM
telomerase; [4]
  IC50: < 5 µM

## N#Cc1ccc(C=Nc2ccc3c(c2)OCCO3)nc1SCc1ccc(Cl)c(Cl)c1 [VIII]
telomerase; [3]
  IC50: 10 µM

## N#Cc1ccc(C=Nc2ccc(Br)c(C(F)(F)F)c2)nc1SCc1ccc(Cl)c(Cl)c1 [VII]
telomerase; [3]
  IC50: 12 µM

## N#Cc1ccc(C=Nc2ccc(F)c(F)c2)nc1SCc1ccc(Cl)c(Cl)c1 [VI]
telomerase; [3]
  IC50: 10 µM

## N#Cc1ccc(N=Cc2ccc(C#N)c(SCc3ccc(Cl)c(Cl)c3)n2)cc1Cl [V]
telomerase; [3]
  IC50: 10 µM

## Cc1ccc(N=Cc2ccc(C#N)c(SCc3ccc(Cl)c(Cl)c3)n2)nc1 [XIII]
telomerase; [3]
  IC50: 7 µM

## Cc1nc(N=Cc2ccc(C#N)c(SCc3ccc(Cl)c(Cl)c3)n2)ccc1Br [XII]
telomerase; [3]
  IC50: 7 µM

## Cc1cccnc1N=Cc1ccc(C#N)c(SCc2cccc(Cl)c2F)n1 [XXVIII]
telomerase; [3]
  IC50: 2 µM

Reference: patent US5767278A, “Telomerase inhibitors” (Geron Corporation, priority 1995, dated 1998)
